Data taken from paper PMC12051030, “Identification of inhibitors of the Salmonella FraB deglycase, a drug target” (FEBS Open Bio, 2025).

Legend:
Salmonella tolC mutant = assay: Growth assay, Salmonella tolC mutant in wild‐type or fra island mutant background; type: cell-based; details: early finding; could not be replicated after multiple attempts with stocks from different suppliers (data not shown)
Excerpt: We sought to examine the possibility that some of the hits in the biochemical HTS were not picked up in the cell‐based assays due to efficient efflux mechanisms in Salmonella. Because TolC is an outer membrane protein channel that is essential for the ability of seven of the 10 inner membrane drug‐efflux transporters to expel structurally diverse molecules, we generated a Salmonella tolC mutant and tested the 121 compounds that we purchased (Sabag‐Daigle, A. & Ahmer, B. M. M., unpublished results). The tests were conducted in parallel using the tolC mutant in a wild‐type or fra island mutant background; the latter lacks the entire fra locus and is incapable of catabolizing F‐Asn and forming 6‐P‐F‐Asp. Thus, any inhibitor specific for FraB (and which was being effluxed in the wild‐type) will inhibit the tolC mutant in a wild‐type but not the fra island mutant background. A caveat is that efflux of compounds may also be achieved via TolC‐independent drug‐efflux pumps.

dCTP pyrophosphatase 1 = system: dCTP pyrophosphatase 1; design: method as in PMID 28145708; details: bioassay records in PubChem; cited from earlier work
deubiquitinase USP17 = system: deubiquitinase USP17; design: method as in PMID 28145708; details: bioassay records in PubChem; cited from earlier work
deubiquitinase USP28 = system: deubiquitinase USP28; design: method as in PMID 28145708; details: bioassay records in PubChem; cited from earlier work
deubiquitinase USP30 = system: deubiquitinase USP30; design: method as in PMID 28145708; details: bioassay records in PubChem; cited from earlier work

In the case of `c1ccc(-c2nnc3sc(C4COc5ccccc5O4)nn23)nc1` (stereo not shown) [3469:F02, 6‐(2,3‐dihydro‐1,4‐benzodioxin‐3‐yl)‐3‐pyridin‐2‐yl‐[1,2,4]triazolo[3,4‐b][1,3,4]thiadiazole], the “inhibition of growth of Salmonella tolC, fra‐dependent” value (shortened to “inhibition of growth … fra‐dependent”) (Salmonella tolC mutant) is reported as “initially shown to inhibit the growth of Salmonella tolC in a fra‐dependent manner”.

In the case of `Fc1ccc(-c2nn3c(-c4ccccn4)nnc3s2)cc1` [3469:N17, 6‐(4‐fluorophenyl)‐3‐pyridin‐2‐yl‐[1,2,4]triazolo[3,4‐b][1,3,4]thiadiazole], the “inhibition of dCTP pyrophosphatase 1” value (dCTP pyrophosphatase 1) is listed as “reported to inhibit” and the “inhibition of growth … fra‐dependent” value (Salmonella tolC mutant) is listed as “initially shown to inhibit the growth of Salmonella tolC in a fra‐dependent manner”.

In the case of `CC(C)Cc1cc(-c2nn3c(-c4ccccc4Cl)nnc3s2)n[nH]1` [3470:A09, 3‐(2‐chlorophenyl)‐6‐[5‐(2‐methylpropyl)‐1H‐pyrazol‐3‐yl]‐[1,2,4]triazolo[3,4‐b][1,3,4]thiadiazole], the “inhibition of USP17” value (deubiquitinase USP17) is listed as “found to inhibit”, the “inhibition of USP28” value (deubiquitinase USP28) is listed as “found to inhibit” and the “inhibition of growth … fra‐dependent” value (Salmonella tolC mutant) is listed as “initially shown to inhibit the growth of Salmonella tolC in a fra‐dependent manner”. For the same compound, the “inhibition of USP30” value (deubiquitinase USP30) was “found to inhibit”.
